Experimental findings from the SangsterLogP compilation are described below.

One may read the logD as the decadic logarithm of the distribution of all forms, ionised or not, between an organic phase and buffer at a given pH. A high value points to a more lipophilic compound.

A short description of this series: method code SF-HPLC, from DOI: 10.1016/j.ejmech.2014.10.073, PMID: 25462263. To be noted: pH 7.4.
On to `CCCOC(=O)Cc1ccc(OCC(=O)N(CC)CC)c(OCC)c1`, for which the log distribution coefficient (logD) worked out at 2.67.
Under `CCN(CC)C(=O)COc1c(F)cc(CC(=O)OCCC(F)(F)F)cc1OC` stands 2.81; under `CCOc1cc(CC(=O)OCC(F)(F)F)cc(F)c1OCC(=O)N(CC)CC`, 2.78.
Under `CCN(CC)C(=O)COc1ccc(CC(=O)OCCC(F)(F)F)c(OC)c1F` stands 2.83.
Consider `CCOC(=O)Cc1cc(OC)c(OCC(=O)N(CC)CC)cc1F`, for which the logD is 2.07.
Under `CCOC(=O)Cc1ccc(OCC(=O)N(CC)CC)c(F)c1OC` stands 2.29; under `CCOc1cc(CC(=O)OCC(C)C)c(F)cc1OCC(=O)N(CC)CC`, 3.03.
For `CCCOC(=O)Cc1ccc(OCC(=O)N(CC)CC)c(OC)c1` the value was 2.6; for `CCN(CC)C(=O)COc1cc(F)c(CC(=O)OC(C)C)cc1OC`, 2.19.
For `CCCOC(=O)Cc1cc(OCC)c(OCC(=O)N(CC)CC)cc1F` the value was 2.72; for `CCOC(=O)Cc1cc(OCC)c(OCC(=O)N(CC)CC)cc1F`, 2.57; for `CCN(CC)C(=O)COc1c(F)cc(CC(=O)OCC(F)(F)F)cc1OC`, 2.51.
As to `CCCOc1cc(CC(=O)OC(C)C)c(F)cc1OCC(=O)N(CC)CC`, the logD turned out to be 2.95.
For `CCN(CC)C(=O)COc1cc(F)c(CC(=O)OCC(F)(F)F)cc1OC` the value was 2.49; for `CCCOC(=O)Cc1cc(F)c(OCC(=O)N(CC)CC)c(OCC)c1`, 2.63.
For `CCN(CC)C(=O)COc1cc(F)c(CC(=O)OCCC(F)(F)F)cc1OC` the value was 2.94; for `CCOc1cc(CC(=O)OC(C)C)c(F)cc1OCC(=O)N(CC)CC`, 2.59.
Under `CCOc1cc(CC(=O)OCCC(F)(F)F)cc(F)c1OCC(=O)N(CC)CC` stands 3.1.
For the compound `CCOc1cc(CC(=O)OC(C)C)cc(F)c1OCC(=O)N(CC)CC`, the logD was 2.46.
The compound `CCCOC(=O)Cc1cc(OC)c(OCC(=O)N(CC)CC)cc1F` had a logD of 2.36.
In turn, `CCOc1cc(CC(=O)OCC(F)(F)F)c(F)cc1OCC(=O)N(CC)CC` had a logD of 2.9.
Under `CCOc1cc(CC(=O)OCCC(F)(F)F)c(F)cc1OCC(=O)N(CC)CC` stands 3.06; under `CCOC(=O)Cc1cc(F)c(OCC(=O)N(CC)CC)c(OCC)c1`, 2.41.
